Here are results for one compound from article PMC13045254, “Dual Targeting of DNA and EGFR by ZYH005 Induces DNA Damage and Mitotic Catastrophe in Glioblastoma” (MedComm, 2026).

The target of the assay is T1, epidermal growth factor receptor (EGFR) (Homo sapiens, UniProt P00533).
T1 construct: recombinant EGFR kinase domain
Kind of assay: SPR with recombinant kinase domain; supported by CETSA, DARTS and LiP-MS. Format: binding.

T1 sequence (P00533 712-979 limits assumed): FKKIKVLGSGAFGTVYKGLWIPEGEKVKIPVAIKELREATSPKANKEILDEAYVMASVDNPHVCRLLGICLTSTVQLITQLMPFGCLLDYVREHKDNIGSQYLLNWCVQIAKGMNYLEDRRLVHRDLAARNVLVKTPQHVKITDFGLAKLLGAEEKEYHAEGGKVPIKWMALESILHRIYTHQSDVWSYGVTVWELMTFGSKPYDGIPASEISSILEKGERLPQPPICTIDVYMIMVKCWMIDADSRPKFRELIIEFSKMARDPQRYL

Consider `COc1ccc(CCn2c(=O)c3cc4c(cc3c3ccccc32)OCO4)cc1` [Z5, ZYH005], for which the Kd – broadly, the constant that tells how readily two partners part at equilibrium – amounted to 19.6 µM.
